Measured values as given in PubChem BioAssay AID330 (DTP/NCI, 2004).
Values joined by “and” are separate entries in the source; they are usually repeats but may differ in a detail not shown here. Equal entries are not always repeated. Inconclusive results and toxic doses are left out. The calls were made as follows: active = survival T/C of 150% or more; inactive = T/C below 125% in these data.

Test system: P388 leukemia ip, CD2F1 mice, survival T/C
Test: NCI In Vivo Anticancer Drug Screen. Data for tumor model P388 Leukemia (intraperitoneal) in CD2F1 (CDF1) mice
Conditions: endpoint: median survival time, higher = longer survival
Procedure, shortened: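 Mice carrying the transplanted tumor received test compound or vehicle. Survival was recorded in each group, and the value is the treated-group measurement divided by that of the vehicle-treated control group.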

[1] = dose: 50.0 mg/kg/injection, schedule: Q01DX009 (ip), vehicle: Klucel (hydroxypropylcellulose) (HPC)
[2] = dose: 100.0 mg/kg/injection, schedule: Q01DX009 (ip), vehicle: Klucel (hydroxypropylcellulose) (HPC)
[3] = dose: 60.0 mg/kg/injection, schedule: Q01DX005 (ip), vehicle: saline with Tween-80
[4] = dose: 120.0 mg/kg/injection, schedule: Q01DX005 (ip), vehicle: saline with Tween-80
[5] = dose: 240.0 mg/kg/injection, schedule: Q01DX005 (ip), vehicle: saline with Tween-80
[6] = dose: 100.0 mg/kg/injection, schedule: Q04DX002 (ip), vehicle: Klucel (hydroxypropylcellulose) (HPC)
[7] = dose: 200.0 mg/kg/injection, schedule: Q04DX002 (ip), vehicle: Klucel (hydroxypropylcellulose) (HPC)
[8] = dose: 400.0 mg/kg/injection, schedule: Q04DX002 (ip), vehicle: Klucel (hydroxypropylcellulose) (HPC)
[9] = dose: 50.0 mg/kg/injection, schedule: Q01DX005 (ip), vehicle: saline with Tween-80
[10] = dose: 100.0 mg/kg/injection, schedule: Q01DX005 (ip), vehicle: saline with Tween-80
[11] = dose: 200.0 mg/kg/injection, schedule: Q01DX005 (ip), vehicle: saline with Tween-80
[12] = dose: 30.0 mg/kg/injection, schedule: Q01DX005 (ip), vehicle: Klucel (hydroxypropylcellulose) (HPC)
[13] = dose: 60.0 mg/kg/injection, schedule: Q01DX005 (ip), vehicle: Klucel (hydroxypropylcellulose) (HPC)
[14] = dose: 120.0 mg/kg/injection, schedule: Q01DX005 (ip), vehicle: Klucel (hydroxypropylcellulose) (HPC)

Measured: T/C

O=C1C(Br)=C(Br)C(=O)c2c(Cl)ccc(O)c21
inactive: dose: 12.5 mg/kg/injection, schedule: Q01DX009 (ip), vehicle: Klucel (hydroxypropylcellulose) (HPC) 101 % of control | dose: 25.0 mg/kg/injection, schedule: Q01DX009 (ip), vehicle: Klucel (hydroxypropylcellulose) (HPC) 98 % of control | [1] 101 % of control and 105 % of control | [2] 88 % of control | dose: 200.0 mg/kg/injection, schedule: Q01DX009 (ip), vehicle: Klucel (hydroxypropylcellulose) (HPC) 100 % of control

C=CCSC(C)=O
inactive: dose: 30.0 mg/kg/injection, schedule: Q01DX005 (ip), vehicle: saline with Tween-80 98 % of control | [3] 100 % of control | [4] 99 % of control

CC12CCC(=O)N1c1ccccc1N2 (centres undefined)
inactive: [3] 98 % of control | [4] 94 % of control | [5] 102 % of control

Cc1ccc2c(ccc(/C=C\c3cc(C)c4cccnc4c3O)[n+]2C)c1
inactive: dose: 0.78 mg/kg/injection, schedule: Q01DX009 (ip), vehicle: saline with Tween-80 124 % of control | dose: 1.56 mg/kg/injection, schedule: Q01DX009 (ip), vehicle: saline with Tween-80 122 % of control | dose: 3.13 mg/kg/injection, schedule: Q01DX009 (ip), vehicle: saline with Tween-80 121 % of control

CC(C)(C)c1cc(OS(=O)(=O)C(F)(F)C(F)(F)C(F)(F)C(F)(F)F)cc(C(C)(C)C)c1
inactive: dose: 50.0 mg/kg/injection, schedule: Q01DX009 (ip), vehicle: saline with Tween-80 106 % of control | dose: 100.0 mg/kg/injection, schedule: Q01DX009 (ip), vehicle: saline with Tween-80 108 % of control | dose: 200.0 mg/kg/injection, schedule: Q01DX009 (ip), vehicle: saline with Tween-80 108 % of control

C(=C\c1cc(-c2cc(/C=C/c3ccccc3)[nH]n2)n[nH]1)/c1ccccc1
inactive: [3] 100 % of control | [4] 99 % of control

Nc1ccc2nc[nH]c2c1
inactive: dose: 25.0 mg/kg/injection, schedule: Q04DX002 (ip), vehicle: Klucel (hydroxypropylcellulose) (HPC) 101 % of control | dose: 50.0 mg/kg/injection, schedule: Q04DX002 (ip), vehicle: Klucel (hydroxypropylcellulose) (HPC) 104 % of control | [6] 101 % of control and 90 % of control

Oc1ccccc1-c1nc(-c2ccccc2)c(-c2ccccc2)[nH]1
inactive: dose: 100.0 mg/kg/injection, schedule: Q04DX003 (ip), vehicle: Klucel (hydroxypropylcellulose) (HPC) 106 % of control | dose: 200.0 mg/kg/injection, schedule: Q04DX003 (ip), vehicle: Klucel (hydroxypropylcellulose) (HPC) 101 % of control | dose: 400.0 mg/kg/injection, schedule: Q04DX003 (ip), vehicle: Klucel (hydroxypropylcellulose) (HPC) 101 % of control

COC(C)(C)c1cc(C(C)(C)C)cc2c1SOC2(C)C
inactive: [6] 94 % of control | [7] 100 % of control | [8] 114 % of control

O/N=C/c1c(-c2ccccc2)nc2n1CCS2
inactive: [6] 101 % of control | [7] 99 % of control | [8] 98 % of control

CCN(CC)CCN1C(=O)C2C3C=CC(C2C1=O)C1C2C(=O)N(CCN(CC)CC)C(=O)C2C31 (centres undefined)
inactive: dose: 6.25 mg/kg/injection, schedule: Q01DX009 (ip), vehicle: water 104 % of control | dose: 12.5 mg/kg/injection, schedule: Q01DX009 (ip), vehicle: water 99 % of control and 100 % of control | dose: 25.0 mg/kg/injection, schedule: Q01DX009 (ip), vehicle: water 100 % of control and 111 % of control | dose: 50.0 mg/kg/injection, schedule: Q01DX009 (ip), vehicle: water 99 % of control and 103 % of control | dose: 100.0 mg/kg/injection, schedule: Q01DX009 (ip), vehicle: water 101 % of control and 111 % of control

CC(C)(C)c1ccc(NC(=O)c2ccccc2N)cc1
inactive: [9] 101 % of control | [10] 97 % of control | [11] 92 % of control

Cc1cccc(NC(=O)C(=O)CC(=O)c2ccc([N+](=O)[O-])cc2)c1C
inactive: [9] 105 % of control | [10] 108 % of control | [11] 106 % of control

NC(=O)OCCCCOC(N)=O
inactive: [1] 100 % of control | [2] 98 % of control

O=C(CSCc1c(F)cccc1Cl)Nc1ccc(F)c(Cl)c1
inactive: [3] 97 % of control | [4] 91 % of control | [5] 91 % of control

COc1ccc2c(=O)c(-c3ccc(OC)c(OC)c3)c(C)oc2c1
inactive: [3] 94 % of control | [4] 91 % of control | [5] 86 % of control

CCNCC(O)c1cccc(C(F)(F)F)c1 (centres undefined)
inactive: dose: 50.0 mg/kg/injection, schedule: Q01DX009 (ip), vehicle: saline 102 % of control | dose: 100.0 mg/kg/injection, schedule: Q01DX009 (ip), vehicle: saline 109 % of control

Clc1ccc(-c2cc(-c3cc(-c4ccc(Cl)cc4Cl)n[nH]3)[nH]n2)c(Cl)c1
inactive: dose: 60.0 mg/kg/injection, schedule: Q01DX005 (ip), vehicle: Klucel + Tween-80 100 % of control | dose: 120.0 mg/kg/injection, schedule: Q01DX005 (ip), vehicle: Klucel + Tween-80 98 % of control | dose: 240.0 mg/kg/injection, schedule: Q01DX005 (ip), vehicle: Klucel + Tween-80 90 % of control

NC(=O)N/N=C/c1cccs1
inactive: dose: 3.12 mg/kg/injection, schedule: Q01DX009 (ip), vehicle: saline with Tween-80 97 % of control | dose: 6.25 mg/kg/injection, schedule: Q01DX009 (ip), vehicle: saline with Tween-80 97 % of control | dose: 12.5 mg/kg/injection, schedule: Q01DX009 (ip), vehicle: saline with Tween-80 93 % of control

Nc1cccc(S(=O)(=O)Nc2c(N)[nH]c(=S)[nH]c2=O)c1
inactive: [12] 101 % of control and 94 % of control | [13] 99 % of control and 100 % of control and 97 % of control | [14] 96 % of control and 97 % of control

COc1cc(/C=N/N2CN(C(C)C(=O)O)B(Nc3ncccn3)N=C2N)cc(OC)c1 (centres undefined)
inactive: dose: 60.0 mg/kg/injection, schedule: Q01DX005 (ip), vehicle: saline 103 % of control | dose: 120.0 mg/kg/injection, schedule: Q01DX005 (ip), vehicle: saline 111 % of control | dose: 240.0 mg/kg/injection, schedule: Q01DX005 (ip), vehicle: saline 112 % of control

N/C(=N\N=C/c1ccccc1)NN(Cc1ccccc1)N=O
inactive: dose: 25.0 mg/kg/injection, schedule: Q01DX005 (ip), vehicle: Klucel (hydroxypropylcellulose) (HPC) 100 % of control | dose: 50.0 mg/kg/injection, schedule: Q01DX005 (ip), vehicle: Klucel (hydroxypropylcellulose) (HPC) 92 % of control | dose: 100.0 mg/kg/injection, schedule: Q01DX005 (ip), vehicle: Klucel (hydroxypropylcellulose) (HPC) 94 % of control

Cc1cc(C)nc(NS(=O)(=O)c2ccc(NC(=O)NCCCl)cc2)n1
inactive: [12] 106 % of control | [13] 107 % of control | [14] 100 % of control | dose: 240.0 mg/kg/injection, schedule: Q01DX005 (ip), vehicle: Klucel (hydroxypropylcellulose) (HPC) 114 % of control

O=C1C(C(=NCCO)c2ccccc2)=C(O)c2ccccc21
inactive: dose: 25.0 mg/kg/injection, schedule: Q04DX002 (ip), vehicle: saline with Tween-80 90 % of control | dose: 50.0 mg/kg/injection, schedule: Q04DX002 (ip), vehicle: saline with Tween-80 101 % of control | dose: 100.0 mg/kg/injection, schedule: Q04DX002 (ip), vehicle: saline with Tween-80 89 % of control
